Source: patent US12221494B2, “Short synthetic peptides and their uses for treating retinal degenerative diseases and/or tissue injuries” (MacKay Memorial Hospital, priority 2019, dated 2025)

What was measured:
[1] = test system: Sprague-Dawley rats, retinal ischemia/reperfusion (I/R) injury; test: Immunofluorescence staining of retinal microglia/astrocytes 14 days after I/R injury; assay type: in vivo; conditions: rat
Description: Experimental procedures were approved by the Mackay Memorial Hospital Review Board (Taiwan, R.O.C.). All surgeries were performed under aseptic conditions. Adult 10-week-old male Sprague-Dawley rats (initial body weight=312±11 g) were anesthetized by an intraperitoneal injection of xylazine (10 mg/kg). Peptide was dissolved in 0.85% normal saline to 1 mM and delivered by the subconjunctival injection of 100 μL peptide through a 31-Gneedle with a micro-syringe before the induction of I/R. Normal saline was as a vehicle control. Rat I/R was performed after peptide or vehicle injection for 4 h. Pupils were dilated with 0.5% tropicamide and 0.5% phenylephrine. Body temperature was maintained at 37° C. using a heating blanket After dilation of the pupil, the anterior chamber of the right eye was cannulated with a 27-gauge needle connected to a physiological saline reservoir. The intraocular pressure (IOP) was raised to 110 mmHg by keeping the reservoir at 150 cm above the eye, and retinal ischemia was confirmed by observing whitening of the iris and the loss of the red reflex of the retina. After 90 min of ischemia, the cannulating needle was withdrawn and the IOP was returned to normal pressure, resulting in recovery of the blood supply from the retinal artery and reperfusion injury induced. The reperfusion was evident by the return of the red reflex. Corneal analgesia was achieved using 1 or 2 drops of 0.4% oxybuprocaine hydrochloride, and Ofloxacin ophthalmic gel (0.3%) was applied topically to the eye before and after the procedure. […]
Deparaffinized retinal sections were blocked with 10% goat serum and 5% bovine serum albumin (BSA) in PBS containing 0.5% TritonX-100 (PBST) for 20 min at room temperature for blocking nonspecific staining. […] The slides were then rinsed with PBST three times, mounted with FluorSave™ reagent (Calbiochem) and viewed with an epifluorescence microscope (Zeiss Axioplan 2 imaging; Zeiss, Oberkochen, Germany) Three sections per eye were averaged and the mean of six eyes was recorded as the representative value for each group.

[2] = test system: STZ-induced diabetic mice; test: GFAP immunofluorescence staining of retina of STZ-induced diabetic mice; assay type: in vivo, mouse; conditions: eye drop, 14 days after STZ injection, vehicle/STZ 24.3±2.7
Description: Deparaffinized retinal sections were blocked with 10% goat serum and 5% bovine serum albumin (BSA) in PBS containing 0.5% TritonX-100 (PBST) for 20 min at room temperature for blocking nonspecific staining. Staining was performed using primary antibodies against glial fibrillary acidic protein (GFAP) (1:100 dilution) or Iba-1 (1:100 dilution) at 37° C. for 3 h. The slides were subsequently incubated with the appropriate fluorescent-labeled secondary antibodies (1:500 dilution) at 37° C. for 1 h and then counterstained with Hoechst 33258 for 6 min. The slides were then rinsed with PBST three times, mounted with FluorSave™ reagent (Calbiochem) and viewed with an epifluorescence microscope (Zeiss Axioplan 2 imaging; Zeiss, Oberkochen, Germany) Three sections per eye were averaged and the mean of six eyes was recorded as the representative value for each group.
Diabetic mice were generated by intraperitoneal injection of streptozotocin (STZ; 200 mg/kg body weight) at day 1 and day 3. STZ was freshly prepared in 0.1 M citrate buffer (pH 4.5). After injection, mice were supplied with 10% sucrose overnight to prevent sudden hypoglycaemic shock. […] Vascular lesions in the retina was scored in all four retinal quadrants of flat mounts by an epifluorescence microscopy at 200×. […]

[3] = test system: C57BL/6 mice, dry eye induced in controlled environment chamber (CEC); test: Dry eye animal model, corneal fluorescein staining; assay type: in vivo, mouse; conditions: mice 14 days in CEC, then 100 μM peptide eye drop three times a day for 4 days (Day 4); day 0 score 3±0
Description: Dry eyes were induced by placing mice in a controlled environment chamber (CEC) for 14 days in accordance with procedures previously described by Barabino et al (IVOS (2005) 46(8), 2766-2771). Mice placed in the CEC were exposed to a condition, in which relative humidity (RH) was maintained at <25%, temperature at 20-22° C., and airflow at about 15 L/min, for 12 hours per day. Control mice were kept in a normal environment (RH>50%, no air flow, temperature of 20-22° C.) for the same duration.
A common artificial tear formulation, 1% carboxymethylcelllulose (CMC) dissolved in balanced salt solution (BSS) was used as the peptide vehicle. Peptide (100 μM, about 0.7 μg peptide in 10 μl eye drop used for treating one eye) or 1% CMC vehicle was topically administered to eyes three times a day. To test whether the present synthetic peptide could exert any therapeutic action on dry eyes, mice were housed at CEC for 14 days without topical treatment, and then were treated with the present peptide for 4 days.
Animals were anesthetized by an intraperitoneal injection of a mixture of zoletil (6 mg/kg) and xylazine (3 mg/kg). Corneal epithelial injury was determined by staining with topical fluorescein (Fluor-I-Strip, Ayerst Laboratories, Philadelphia, PA). Corneal fluorescein staining was examined with a slit-lamp biomicroscope under cobalt blue light and photographed with a digital camera. Dye staining of the cornea was scored in a blinded manner as follows: score 0 for no punctuate staining; score 1 when less than one third of the cornea was stained; score 2 when two thirds or less was stained; and score 3 when more than two thirds was stained (Horwath-Winter J 2013).
Briefly, mice were housed at controlled environment chamber (CEC) for 14 days (set as Day 0) to induce corneal surface disruption. Corneal fluorescein staining was used to estimate the corneal surface injury and the animal with a staining score of 2 (after mice placed at CEC for 14 days) was subjected to peptide treatment. The 6-mer variant peptide formulation for the treatment of DED was described in Methods. […]

[4] = test system: survivin mRNA; test: Real-time qPCR of survivin mRNA in C2C12 cells; assay type: cell-based, mouse; conditions: stimulated for 3 h

**Q.** “NH2-(D-Ser)-Leu-Gly-Ala-Glu-Gln-COOH (SLGAEQ; HELM PEPTIDE1{[dS].L.G.A.E.Q}$$$$V2.0; SMILES CC(C)C[C@H](NC(=O)[C@H](N)CO)C(=O)NCC(=O)N[C@@H](C)C(=O)N[C@@H](CCC(=O)O)C(=O)N[C@@H](CCC(N)=O)C(=O)O) [6-mer dS]” was tested. Which “activation of Iba-1-positive microglial cells and GFAP-positive astrocytes, in words” value [1] did it give?
**A.** Its value is “less prominent”.

**Q.** And the “Iba-1-positive Microglia” value ([1]; Control 3.3 ± 1.2, Vehicle + I/R 24.7 ± 1.6)?
**A.** Its value is 5.8 ± 1.0 /400 × field.

**Q.** And the “GFAP-positive astrocytes” value ([1]; Control 6.9 ± 2.0, Vehicle + I/R 28.6 ± 2.2)?
**A.** Its value is 10.3 ± 1.8 /400 × field.

**Q.** What about the GFAP-positive astrocytes [2] of the same substance?
**A.** The GFAP-positive astrocytes was 11.0±1.4 numbers/400× field.

**Q.** And the “corneal fluorescein staining score” value [3]?
**A.** Its value is 1.4±0.2 score.

**Q.** What about the “level of survivin mRNA compared to solvent-treated cells” value [4] of the same substance?
**A.** The value was 2.6 fold.
